According to patent publication US20150266850A1 (E.I.DU PONT DE NEMOURS AND COMPANY, priority 2012, published 2015):
Marks after values point to notes of the source that are not given here.

Tests used:
Format in all cases: in vivo
Conditions in all cases: 100 = 100% disease control
[1] = tested on: Erysiphe graminis f. sp. tritici; assay: Test A: wheat powdery mildew, preventive spray on wheat seedlings, visual disease rating
Summary of the method: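 Wheat seedlings sprayed to run-off with compound in acetone/water with 250 ppm Trem 014 (200 ppm ≈ 800 g/ha; some at 40 or 50 ppm), inoculated next day with spore dust. After 8 days at 20° C, disease control rated visually, 0–100% relative to controls.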

[2] = tested on: Puccinia recondita f sp. tritici; assay: Test B: wheat leaf rust, preventive spray on wheat seedlings, visual disease rating
Summary of the method: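 Test suspension in acetone/water 50/50 with 250 ppm Trem® 014, sprayed to run-off on wheat seedlings at 200 ppm (≈800 g/ha), or 40 or 50 ppm where marked. Inoculated next day with spores, held 24 h saturated at 20° C, then 7 days at 20° C; disease control rated visually, 0–100 versus controls.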

Septoria tritici = assay: Test C: wheat leaf blotch, preventive spray on wheat seedlings, visual disease rating
Summary of the method: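 Compounds in acetone (11% of final volume) suspended in acetone/water 50/50 with 250 ppm Trem® 014; 200 ppm (≈800 g/ha), some at 40 or 50 ppm, sprayed to run-off. Septoria tritici inoculated next day; 48 h saturated at 24° C., then 19 days at 20° C.; visual rating, 0–100% control vs untreated.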

Septoria nodorum = assay: Test D: wheat glume blotch, preventive spray on wheat seedlings, visual disease rating
Summary of the method: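 Preventive test: wheat seedlings sprayed to run-off with compound suspension (acetone/water with 250 ppm Trem 014; 200 ppm, some at 40 or 50 ppm), inoculated with Septoria nodorum next day. Held 48 h saturated at 20° C, then 7 days at 20° C; visual rating 0-100% disease control versus controls.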

Botrytis cinerea = assay: Test E: tomato botrytis, preventive spray on tomato seedlings, visual disease rating
Summary of the method: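 Compounds in acetone/water (50/50) with 250 ppm Trem 014, sprayed to run-off on tomato seedlings at 200 ppm (≈800 g/ha) unless marked 40 or 50 ppm. Inoculated next day with B. cinerea spores; 48 h saturated atmosphere at 20°C, then 3 days at 27°C; visual rating, 100 = full control vs controls.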

| Molecule | Test A disease control rating ([1]; 200 ppm) [%] | Test B disease control rating ([2]; 200 ppm) [%] | Test C disease control rating (Septoria tritici; 200 ppm) [%] | Test D disease control rating (Septoria nodorum; 200 ppm) [%] | Test E disease control rating (Botrytis cinerea; 200 ppm) [%] | Test A disease control rating ([1]; 40 ppm (*)) | Test B disease control rating ([2]; 40 ppm (*)) | Test C disease control rating (Septoria tritici; 40 ppm (*)) | Test D disease control rating (Septoria nodorum; 40 ppm (*)) | Test E disease control rating (Botrytis cinerea; 40 ppm (*)) |
| --- | --- | --- | --- | --- | --- | --- | --- | --- | --- | --- |
| C#CCOc1cc(Cl)ccc1-n1ccc(-c2ccc(C)c(CNC(=O)OC)c2)n1 [Cmpd 34] | 100 | 100 | 100 | 100 | 91 |  |  |  |  |  |
| COC(=O)NCc1cc(-n2ccc(-c3ccc(C#N)cc3C)n2)ccc1C [Cmpd 69] |  |  |  |  |  | 100* % | 100* % | 66* % | 100* % | 0* % |
| COC(=O)NCc1cc(-c2ccn(-c3ccc(Cl)cc3OCC#N)n2)ccc1C [Cmpd 35] | 92 | 100 | 100 | 100 | 41 |  |  |  |  |  |
| COC(=O)NCc1cc(-n2ccc(-c3ccc(Cl)nc3C)n2)ccc1C [Cmpd 44] |  |  |  |  |  | 98* % | 100* % | 92* % | 100* % | 0* % |
| CCc1cc(OC)ccc1-n1ccc(-c2ccc(C)c(CNC(=O)OC)c2)n1 [Cmpd 26] | 99 | 100 | 100 | 100 | 31 |  |  |  |  |  |
| methyl N-[[5-[1-(2,4-dimethylphenyl)-1H-pyrazol-3-yl]-2-methylphenyl]-methyl]carbamate [Compound 66] |  |  |  |  |  | 100* % | 100* % | 96* % | 100* % | 99* % |
| COC(=O)NCc1cc(-c2ccn(-c3ccc(C)cc3OC)n2)ccc1C [Cmpd 29] | 99 | 100 | 100 | 100 | 63 |  |  |  |  |  |
| COC(=O)NCc1cc(-c2ccn(-c3ccc(SC)cc3OC)n2)ccc1C [Cmpd 15] | 96 | 100 | 77 | 100 | 64 |  |  |  |  |  |
| COC(=O)NCc1cc(-n2ccc(-c3ccc(C)cc3OC)n2)ccc1C [Cmpd 12] | 100 | 100 | 97 | 100 | 95 |  |  |  |  |  |
| CCOc1ccc(-c2ccn(-c3ccc(C)c(CNC(=O)OC)c3)n2)c(Cl)c1 [Cmpd 76] |  |  |  |  |  | 100* % | 100* % | 99* % | 100* % | 0* % |
| COC(=O)NCc1cc(-c2ccn(-c3ccc(OC)cc3SC)n2)ccc1C [Cmpd 16] | 97 | 100 | 85 | 100 | 97 |  |  |  |  |  |
